From patent US4476117A, “Dimers of peptide amides” (Imperial Chemical Industries PLC, priority 1982, dated 1984)
Numbered stars: 1 amine (or outer) side, 2 acyl side, 3 side chain; on linkers, the order of the positions; unused ones are H or OH. Bridge positions count the residues as written; N and C are the ends. Peptide text beside a SMILES is read from it. I, II: the chains in the order shown. * marks the point of attachment. Tyr(Nα,Nα-allyl2) = C=CCN(CC=C)[C@@H](Cc1ccc(O)cc1)C(=O)*; Ethylenediamine = C(CN[*:2])N[*:1]

Assay: tolerance in the rat, subcutaneous dose
Format: in vivo
Protocol: As an indication of the lack of toxicity of a specific compound of the invention, namely [diallyl-Tyr-Gly-Gly-Phe-Leu-NH-CH2 -]2, that compound is tolerated in the rat at a subcutaneous dose of at least 15 mg./kg.

With `C=CCN(CC=C)[C@@H](Cc1ccc(O)cc1)C(=O)NCC(=O)NCC(=O)N[C@@H](Cc1ccccc1)C(=O)N[C@@H](CC(C)C)C(=O)NCCNC(=O)[C@H](CC(C)C)NC(=O)[C@H](Cc1ccccc1)NC(=O)CNC(=O)CNC(=O)[C@H](Cc1ccc(O)cc1)N(CC=C)CC=C` [Example 1, (diallyl-Tyr-Gly-Gly-Phe-Leu-NH-CH2 -)2 bis-trifluoroacetate] (I: {Tyr(Nα,Nα-allyl2)}-GGFL / II: {Tyr(Nα,Nα-allyl2)}-GGFL; linker I:C-II:C via Ethylenediamine) the tolerated subcutaneous dose was “at least 15 mg./kg”.
